As a reminder, the IC50 is the concentration needed to halve the response being measured. The low end stands for inhibition by little substance, the high end for a need for much substance.

For the assay, the target named is T1, human sputum elastase (HSE) (Homo sapiens, UniProt P08246).
T1 construct: human sputum elastase (HSE); from tissue; host or cells: human sputum (from the enzyme's name only)
T1 sequence (P08246 30-247 limits assumed): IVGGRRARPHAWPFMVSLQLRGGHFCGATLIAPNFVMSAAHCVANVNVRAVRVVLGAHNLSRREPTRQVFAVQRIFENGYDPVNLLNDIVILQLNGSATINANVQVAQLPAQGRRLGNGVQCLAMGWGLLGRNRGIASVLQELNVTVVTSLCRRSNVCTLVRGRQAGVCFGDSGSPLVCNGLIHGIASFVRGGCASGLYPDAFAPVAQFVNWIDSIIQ
The experiment in a line: Inhibitory effects on human sputum elastase. Format: biochemical. Particulars: pre-incubated at 37°C for 20 minutes; substrate MeO-Suc-Ala-Ala-Pro-Val-pNA, 37°C for 5 minutes; HEPES buffer (pH 8.0); pNA measured at 405 nm. Here is the method:
(1) Inhibitory effects on human sputum elastase
A mixture of 0.5 ml of 0.2 mM HEPES buffer (pH 8.0), 0.2 ml of 2.5 M aqueous solution of sodium chloride, 0.1 ml of 1% polyethyleneglycol 6000, 0.13 ml of distilled water, 0.01 ml of a solution of test compound in dimethylsulfoxide (DMSO) and 0.05 ml of 0.8 U/ml human sputum elastase (HSE) was pre-incubated at 37°C, for 20 minutes. 0.01 ml of 5 mM MeO-Suc-Ala-Ala-Pro-Val-pNA in DMSO was added to the above mixture and the mixture was incubated at 37°C for 5 minutes. The reaction was terminated by 0.1 ml of 50% acetic acid and then p-nitroanilide (pNA) released was measured spectrophotometrically at 405 nm. Percent inhibition of a compound was calculated by the following equation. Inhibition (%) = [1 - {delta OD (test-blank) / delta OD (control-blank)}] × 100 [formula]

The structures appear in SMILES notation.

As for `CC(C)C(NC(=O)Cn1c(-c2ccccc2)ncc([N+](=O)[O-])c1=O)C(=O)c1nnc(C(C)(C)C)o1` (racemic) [Example 7(1), N-[(1RS)-1-(5-(t-butyl)-1,3,4-oxadiazol-2-ylcarbonyl)-2-methylpropyl]-2-[6-oxo-2-phenyl-5-nitro-1,6-dihydropyrimidin-1-yl]acetamide], 88 nM corresponded to half-maximal inhibition (IC50).

The values above are taken from patent publication EP1219608A1, “PYRIMIDINE DERIVATIVES, PROCESS FOR PREPARING THE DERIVATIVES AND DRUGS CONTAINING THE SAME AS THE ACTIVE INGREDIENT” (ONO PHARMACEUTICAL CO., LTD., priority 1999, dated 2001).
